Experiments:
Type in all cases: biochemical
[1] = biological target: T1, HDAC9 enzyme (Homo sapiens, UniProt Q9UKV0); assay: HDAC9 Enzyme Inhibitory Assay (HDAC-Glo class IIa); conditions: 1 μM test compound; wells without enzyme = 100% inhibition; read-out: HDAC9 inhibitory rate (%) (1 μM)
T1 construct: transducing full length HDAC9 gene into Sf-9 insect cells; made in house; host or cells: Sf-9 insect cells
Method in brief: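 Luminescent HDAC-Glo class IIa readout after a 20 min room-temperature reaction; relative inhibition referenced to enzyme-free wells as 100%. Test compound first preincubated 60 min with Sf-9-expressed, Ni-NTA-purified full-length HDAC9 in pH 7.5 Tris buffer containing 135 mM NaCl, 0.6 mM glutathione and 0.01% Tween-20.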

[2] = biological target: T2, HDAC6 enzyme (Homo sapiens, UniProt Q9UBN7); assay: HDAC1/6 Enzyme Inhibitory Assay (HDAC-Glo I/II Assay kit), HDAC6; conditions: 1 μM test compound; wells without enzyme = 100% inhibition; read-out: HDAC6 inhibitory rate (%) (1 μM)
T2 construct: transducing full length HDAC1 and HDAC6 genes into Sf-9 insect cells; GST; purchased SignalChem; host or cells: Sf-9 insect cells
T2 sequence (Q9UBN7 1-1215): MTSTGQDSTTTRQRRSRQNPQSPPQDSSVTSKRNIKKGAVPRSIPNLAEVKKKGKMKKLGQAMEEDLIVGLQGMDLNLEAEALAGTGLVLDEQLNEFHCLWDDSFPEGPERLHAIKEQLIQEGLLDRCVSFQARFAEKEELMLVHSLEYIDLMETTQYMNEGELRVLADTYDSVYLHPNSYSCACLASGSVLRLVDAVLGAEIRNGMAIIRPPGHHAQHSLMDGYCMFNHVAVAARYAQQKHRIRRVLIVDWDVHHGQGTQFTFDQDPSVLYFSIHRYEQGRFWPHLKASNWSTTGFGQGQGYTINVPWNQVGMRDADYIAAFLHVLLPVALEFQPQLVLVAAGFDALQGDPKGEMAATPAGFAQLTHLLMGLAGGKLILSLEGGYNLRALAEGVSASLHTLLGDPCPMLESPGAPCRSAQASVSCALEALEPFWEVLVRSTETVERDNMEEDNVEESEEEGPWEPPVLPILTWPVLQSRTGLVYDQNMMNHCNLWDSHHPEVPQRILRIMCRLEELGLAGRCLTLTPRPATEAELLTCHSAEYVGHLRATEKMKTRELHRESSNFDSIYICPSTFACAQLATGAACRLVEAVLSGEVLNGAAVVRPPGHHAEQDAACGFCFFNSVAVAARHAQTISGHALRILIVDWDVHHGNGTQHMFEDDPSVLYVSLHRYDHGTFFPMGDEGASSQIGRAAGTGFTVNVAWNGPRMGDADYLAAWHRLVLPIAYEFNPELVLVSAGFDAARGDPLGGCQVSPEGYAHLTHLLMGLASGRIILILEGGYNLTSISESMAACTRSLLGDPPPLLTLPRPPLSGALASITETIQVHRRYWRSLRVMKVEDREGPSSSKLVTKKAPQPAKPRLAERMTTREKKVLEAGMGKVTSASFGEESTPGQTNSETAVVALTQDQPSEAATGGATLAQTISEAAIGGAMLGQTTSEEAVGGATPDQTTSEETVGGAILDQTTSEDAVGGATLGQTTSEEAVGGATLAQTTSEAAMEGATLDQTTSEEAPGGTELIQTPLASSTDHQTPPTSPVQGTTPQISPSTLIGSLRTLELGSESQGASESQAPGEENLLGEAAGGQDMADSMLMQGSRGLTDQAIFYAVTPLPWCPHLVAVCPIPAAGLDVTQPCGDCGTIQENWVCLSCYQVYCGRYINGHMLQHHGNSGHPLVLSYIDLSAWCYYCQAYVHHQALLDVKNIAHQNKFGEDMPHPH
Method in brief: (§1)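 Steps: compound in pH 7.5 Tris buffer plus enzyme (full-length HDAC1 or HDAC6 from Sf-9, GST-purified), 60 min at room temperature; add HDAC-Glo substrate-developer; react 20 min; read luminescence. Relative activity is calculated against enzyme-free wells taken as full inhibition.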

[3] = biological target: T3, HDAC1 enzyme (Homo sapiens, UniProt Q13547); assay: HDAC1/6 Enzyme Inhibitory Assay (HDAC-Glo I/II Assay kit), HDAC1; conditions: 1 μM test compound; wells without enzyme = 100% inhibition; read-out: HDAC1 inhibitory rate (%) (1 μM)
T3 construct: transducing full length HDAC1 and HDAC6 genes into Sf-9 insect cells; GST; purchased SignalChem; host or cells: Sf-9 insect cells
T3 sequence (Q13547 whole entry): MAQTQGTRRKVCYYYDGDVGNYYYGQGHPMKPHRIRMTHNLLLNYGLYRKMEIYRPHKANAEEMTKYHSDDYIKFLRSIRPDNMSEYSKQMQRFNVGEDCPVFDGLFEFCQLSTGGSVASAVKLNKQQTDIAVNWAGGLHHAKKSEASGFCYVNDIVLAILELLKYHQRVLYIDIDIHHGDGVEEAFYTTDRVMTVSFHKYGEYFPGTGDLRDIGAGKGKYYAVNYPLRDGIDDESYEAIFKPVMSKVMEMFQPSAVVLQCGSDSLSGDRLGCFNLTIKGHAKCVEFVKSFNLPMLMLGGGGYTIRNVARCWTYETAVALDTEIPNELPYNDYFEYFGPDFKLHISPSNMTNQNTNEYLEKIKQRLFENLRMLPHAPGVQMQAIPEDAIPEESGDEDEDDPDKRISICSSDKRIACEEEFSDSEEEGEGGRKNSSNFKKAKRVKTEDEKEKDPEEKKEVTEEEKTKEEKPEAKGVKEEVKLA
Method in brief: as §1

T1 sequence (Q9UKV0 whole entry, species assumed): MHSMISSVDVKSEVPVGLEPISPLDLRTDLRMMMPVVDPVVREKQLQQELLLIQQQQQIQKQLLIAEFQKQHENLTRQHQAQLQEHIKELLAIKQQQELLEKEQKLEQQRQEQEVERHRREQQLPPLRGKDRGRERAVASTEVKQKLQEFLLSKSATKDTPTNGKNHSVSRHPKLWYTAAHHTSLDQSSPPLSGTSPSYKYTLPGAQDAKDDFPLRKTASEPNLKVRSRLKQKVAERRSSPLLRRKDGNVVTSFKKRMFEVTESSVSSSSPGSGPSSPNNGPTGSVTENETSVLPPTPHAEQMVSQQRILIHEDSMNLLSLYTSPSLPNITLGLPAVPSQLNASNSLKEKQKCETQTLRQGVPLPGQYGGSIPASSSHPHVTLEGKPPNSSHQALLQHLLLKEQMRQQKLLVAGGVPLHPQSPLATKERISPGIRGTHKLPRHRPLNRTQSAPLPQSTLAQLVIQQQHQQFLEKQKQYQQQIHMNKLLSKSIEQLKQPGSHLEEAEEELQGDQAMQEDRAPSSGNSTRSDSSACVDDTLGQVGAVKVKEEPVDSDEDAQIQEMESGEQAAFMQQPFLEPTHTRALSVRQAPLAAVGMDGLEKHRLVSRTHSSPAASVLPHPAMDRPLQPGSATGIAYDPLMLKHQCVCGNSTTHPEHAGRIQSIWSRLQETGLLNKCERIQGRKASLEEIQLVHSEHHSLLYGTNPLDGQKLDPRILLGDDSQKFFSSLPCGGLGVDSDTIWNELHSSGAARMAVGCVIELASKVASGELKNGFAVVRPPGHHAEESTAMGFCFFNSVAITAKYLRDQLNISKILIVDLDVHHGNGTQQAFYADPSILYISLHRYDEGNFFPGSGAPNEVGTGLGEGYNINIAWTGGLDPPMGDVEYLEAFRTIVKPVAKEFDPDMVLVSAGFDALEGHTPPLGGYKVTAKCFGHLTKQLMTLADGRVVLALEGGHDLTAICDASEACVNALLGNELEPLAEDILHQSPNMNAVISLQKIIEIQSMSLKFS

inhibition at 1 µM [1] [%]	inhibition at 1 µM [2] [%]	inhibition at 1 µM [3] [%]	SMILES
52	99	5	O=C(N[C@@H]1CCCC[C@H]1N1Cc2ccc(-c3noc(C(F)(F)F)n3)cc2C1=O)C1CC1 [Example 32, N-((1R,2R)-2-(1-oxo-6-(5-(trifluoromethyl)-1,2,4-oxadiazol-3-yl)-1,3-dihydro-2H-isoindol-2-yl)cyclohexyl)cyclopropanecarboxamide]
84	97	30	CC(C)(C)OC(=O)N1CC[C@H](N2Cc3ccc(-c4noc(C(F)(F)F)n4)cc3C2=O)[C@@H](c2ccccc2)C1 [Example 30, tert-butyl (3S,4S)-4-(1-oxo-6-(5-(trifluoromethyl)-1,2,4-oxadiazol-3-yl)-1,3-dihydro-2H-isoindol-2-yl)-3-phenylpiperidine-1-carboxylate]
92	98	80	O=C(N[C@H]1CCCC[C@H]1N1Cc2ccc(-c3noc(C(F)(F)F)n3)cc2C1=O)C1CC1 [Example 86, N-((1S,2R)-2-(1-oxo-6-(5-(trifluoromethyl)-1,2,4-oxadiazol-3-yl)-1,3-dihydro-2H-isoindol-2-yl)cyclohexyl) cyclopropanecarboxamide]
54	90	17	O=C1c2cc(-c3noc(C(F)(F)F)n3)ccc2CN1[C@H]1C[C@@H]1c1ccccc1 (relative stereo) [Example 66, 2-(trans-2-phenylcyclopropyl)-6-(5-(trifluoromethyl)-1,2,4-oxadiazol-3-yl)isoindolin-1-one]
34	99	5	O=C(N[C@@H]1CCCC[C@H]1N1Cc2ccc(-c3noc(C(F)(F)F)n3)cc2C1=O)N1CC(F)(F)C1 [Example 162, 3,3-difluoro-N-((1R,2R)-2-(1-oxo-6-(5-(trifluoromethyl)-1,2,4-oxadiazol-3-yl)-1,3-dihydro-2H-isoindol-2-yl)cyclohexyl)azetidine-1-carboxamide]
42	95	2	O=C1C[C@@H](C(=O)N[C@@H]2CCCC[C@H]2N2Cc3ccc(-c4noc(C(F)(F)F)n4)cc3C2=O)N1 [Example 93, (2S)-4-oxo-N-((1R,2R)-2-(1-oxo-6-(5-(trifluoromethyl)-1,2,4-oxadiazol-3-yl)-1,3-dihydro-2H-isoindol-2-yl)cyclohexyl)azetidine-2-carboxamide]
65	95	9	CC(C)(C)OC(=O)N[C@@H]1CCCC[C@H]1N1Cc2ccc(-c3noc(C(F)(F)F)n3)cc2C1=O (relative stereo) [Example 6, tert-butyl trans-(2-(1-oxo-6-(5-(trifluoromethyl)-1,2,4-oxadiazol-3-yl)-1,3-dihydro-2H-isoindol-2-yl)cyclohexyl)carbamate]
76	11	-3	CC(C)(C)OC(=O)N1CC[C@H](N2Cc3cc(-c4noc(C(F)(F)F)n4)ccc3C2=O)[C@H](c2ccccc2)C1 (relative stereo) [Example 78, tert-butyl cis-4-(1-oxo-5-(5-(trifluoromethyl)-1,2,4-oxadiazol-3-yl)-1,3-dihydro-2H-isoindol-2-yl)-3-phenylpiperidine-1-carboxylate]
97	98	79	CC(C)(C)OC(=O)N1CC[C@@H](N2Cc3ncc(-c4noc(C(F)(F)F)n4)cc3C2=O)[C@H](c2ccccc2)C1 [Example 88, tert-butyl (3R,4R)-4-(5-oxo-3-(5-(trifluoromethyl)-1,2,4-oxadiazol-3-yl)-5,7-dihydro-6H-pyrrolo[3,4-b]pyridin-6-yl)-3-phenylpiperidine-1-carboxylate]
32	96	3	CN1CCCCC1C(=O)N[C@@H]1CCCC[C@H]1N1Cc2ccc(-c3noc(C(F)(F)F)n3)cc2C1=O (stereo partly drawn) [Example 124, 1-methyl-N-((1R,2R)-2-(1-oxo-6-(5-(trifluoromethyl)-1,2,4-oxadiazol-3-yl)-1,3-dihydro-2H-isoindol-2-yl)cyclohexyl)piperidine-2-carboxamide]
59	99	14	O=C(N[C@@H]1CCCC[C@H]1N1Cc2ccc(-c3noc(C(F)(F)F)n3)cc2C1=O)C1CCC1 [Example 97, N-((1R,2R)-2-(1-oxo-6-(5-(trifluoromethyl)-1,2,4-oxadiazol-3-yl)-1,3-dihydro-2H-isoindol-2-yl)cyclohexyl) cyclobutanecarboxamide]
82	100	8	O=C(N[C@@H]1CCCC[C@H]1N1Cc2ccc(-c3noc(C(F)(F)F)n3)cc2C1=O)[C@H]1CC1(F)F [Example 148, (1R)-2,2-difluoro-N-((1R,2R)-2-(1-oxo-6-(5-(trifluoromethyl)-1,2,4-oxadiazol-3-yl)-1,3-dihydro-2H-isoindol-2-yl)cyclohexyl) cyclopropanecarboxamide]
73	100	9	CC(C)(C#N)C(=O)N[C@@H]1CCCC[C@H]1N1Cc2ccc(-c3noc(C(F)(F)F)n3)cc2C1=O [Example 100, 2-cyano-2-methyl-N-((1R,2R)-2-(1-oxo-6-(5-(trifluoromethyl)-1,2,4-oxadiazol-3-yl)-1,3-dihydro-2H-isoindol-2-yl)cyclohexyl)propanamide]
29	44	5	O=C(N[C@H]1CCCC[C@@H]1N1Cc2ccc(-c3noc(C(F)(F)F)n3)cc2C1=O)[C@H]1CCCO1 [Example 218, (2R)-N-((1S,2S)-2-(1-oxo-6-(5-(trifluoromethyl)-1,2,4-oxadiazol-3-yl)-1,3-dihydro-2H-isoindol-2-yl)cyclohexyl)tetrahydrofuran-2-carboxamide]
54	100	14	CN(C(=O)N[C@@H]1CCCC[C@H]1N1Cc2ccc(-c3noc(C(F)(F)F)n3)cc2C1=O)C1CC1 [Example 155, 1-cyclopropyl-1-methyl-3-((1R,2R)-2-(1-oxo-6-(5-(trifluoromethyl)-1,2,4-oxadiazol-3-yl)-1,3-dihydro-2H-isoindol-2-yl)cyclohexyl)urea]
99	100	93	O=C1c2cc(-c3noc(C(F)(F)F)n3)ccc2CN1[C@@H]1CCNC[C@H]1c1ccc(F)c(Cl)c1 (relative stereo) [Example 54, 2-(trans-3-(3-chloro-4-fluorophenyl)piperidin-4-yl)-6-(5-(trifluoromethyl)-1,2,4-oxadiazol-3-yl)isoindolin-1-one]
55	99	4	O=C(N[C@@H]1CCCC[C@H]1N1Cc2ccc(-c3noc(C(F)(F)F)n3)cc2C1=O)C1C[C@@H]1F (stereo partly drawn) [Example 98, 2-fluoro-N-((1R,2R)-2-(1-oxo-6-(5-(trifluoromethyl)-1,2,4-oxadiazol-3-yl)-1,3-dihydro-2H-isoindol-2-yl)cyclohexyl) cyclopropanecarboxamide]

From patent publication US10308643B2, “Heterocyclic compound” (Takeda Pharmaceutical Company Limited, priority 2015, dated 2019)
